Where two headings read alike, the source gives them in different places.
Assays:
[1] = tested on: PI3K; experiment: Phosphorylation of PI3K in L6 myotubes (western blot); type: cell-based, rat; conditions: 15 min
Method: (§1) For in vitro cell culture experiments, after serum starvation for 18 h, myotubes were treated with various concentrations of quercetin or isorhamnetin (0.1–10 nM) for 15 min; DMSO (final 0.1%) was used as a vehicle control. As positive controls, 100 nM insulin, 1 mM AICAR, 10 nM leptin, or 100 ng/mL IL-15 were used for insulin, AMPK, JAK2/STAT, or JAK3/STAT signalling pathways, respectively. Cells were treated with insulin or AICAR for 15 min, leptin for 60 min, or IL-15 for 24 h. Whole protein and plasma membrane fractions were prepared from myotubes, as previously described. For in vivo experiment, plasma membrane fraction and tissue lysate of soleus muscle were prepared.
Translocation of GLUT4 to the plasma membrane, as well as expression and phosphorylation levels of GLUT4-related regulators were estimated by western blot analysis. Briefly, equal amounts of proteins were separated by sodium dodecyl sulfate-polyacrylamide gel electrophoresis (SDS-PAGE). […] Specific immune complexes were developed using ImmunoStar® LD and detected with an ATTO Light-Capture II Western Blotting Detection System. Individual band density was calculated by ImageJ and normalized to the control.

[2] = tested on: AMPK; experiment: Phosphorylation of AMPK in L6 myotubes (western blot); type: cell-based, rat; conditions: 15 min
Method: In vitro cultured cell experiments were conducted according to a previously described protocol[6],[14]. Briefly, L6 myoblasts derived from rat skeletal muscle and of less than 40 passages were maintained in MEM supplemented with 10% foetal bovine serum (FBS) and antibiotics (100 U/ml penicillin and 100 μg/ml streptomycin) at 37 °C under a humidified atmosphere condition of 5% CO2 and 95% air. In each experiment, cells (2.2 × 10^4 cells/ml) were seeded into 96-well plates or 60-mm dishes for induction of differentiation into mature myotubes. After reaching confluence, cells were supplemented with differentiation medium containing 2% FBS and the same antibiotics for 7 days. Cells were used for each experiment after morphological analysis of differentiation status using phase-contrast microscopy. To explore the contribution of CaMKKβ or intracellular-free calcium ions in quercetin- and isorhamnetin-stimulated GLUT4 translocation, L6 cells were incubated in the presence or absence of 10 μM STO-609 and 25 μM […], respectively, for 30 min prior to treatment with either quercetin or isorhamnetin.
as §1
Translocation of GLUT4 to the plasma membrane, as well as expression and phosphorylation levels of GLUT4-related regulators were estimated by western blot analysis. Briefly, equal amounts of proteins were separated by sodium dodecyl sulfate-polyacrylamide gel electrophoresis (SDS-PAGE). Separated proteins were transferred onto a polyvinylidene fluoride membrane and nonspecific binding sites were blocked using either Blocking One (to detect unphosphorylated proteins) or Blocking One-P (to detect phosphoproteins). The membrane was incubated overnight with an appropriate primary antibody for GLUT4 (1:5000), IR (1:10000), p-IRS1 (1:5000), IRS1 (1:5000), p-PI3K (1:5000), PI3K (1:10000), p-Akt (1:5000), Akt (1:10000), p-AMPKα (1:5000), AMPKα (1:10000), p-ACC (1:5000), ACC (1:10000), p-LKB1 (1:5000), LKB1 (1:10000), p-JAK2 (1:5000), JAK2 (1:5000), p-JAK3 (1:5000), JAK3 (1:10000), p-STAT1 (1:5000), STAT1 (1:10000), p-STAT3 (1:5000), STAT3 (1:10000), p-STAT5 (1:5000), STAT5 (1:10000), or β-actin (1:20000), and subsequently treated with the corresponding horseradish peroxidase-conjugated secondary antibody (1:50000) for 1 h. Specific immune complexes were developed using ImmunoStar® LD and detected with an ATTO Light-Capture II Western Blotting Detection System. Individual band density was calculated by ImageJ and normalized to the control.
42 after morphological analysis of differentiation status using phase-contrast microscopy.
43 Preparation of whole protein and plasma membrane fractions After serum starvation
44 for 18 h, myotubes were treated with various concentrations of quercetin or isorhamnetin (1–
45 10 μM) for 15 min; DMSO (final 0.1%) was used as a vehicle control. As positive controls, […]

[3] = Plasma concentrations of quercetin and isorhamnetin in mice after oral EMIQ (HPLC); type: in vivo; conditions: male, ICR, mouse, HPLC without deconjugation, read-out: Concentration in plasma, Aglycone form
Method: All animal experiments were performed according to the guidelines for animal experiments at Kobe University Animal Experimentation Regulation and approved by the Institutional Animal Care and Use Committed of Kobe University (Permission 29-05-02). Male ICR mice (5 weeks old, n = 20) were obtained from Japan SLC (Shizuoka, Japan) and maintained at constant temperature (23 ± 2 °C) with a 12 h light-dark cycle (lights on at 8:00 am). Mice were subsequently randomly divided into four groups of five each, and acclimatized for 1 week with free access to tap water and a laboratory-purified diet (3.850 kcal/g diet) consisting of 76% carbohydrate, 15% protein and 9% fat) (Research Diets, Tokyo, Japan). For analysis of concentrations of quercetin and isorhamnetin in the plasma and GLUT4 translocation in the muscle, mice were orally administrated EMIQ at 10, 100, or 1000 mg/kg body weight, or water as a vehicle control after 18 h fasting. The mice were sacrificed 90 min after the administration under anesthesia using sodium pentobarbital and seroflurane, and euthanized by exsanguination from cardiac puncture. Plasma and soleus muscle were collected, and kept at -80 °C until use.
To determine the levels of quercetin and isorhamnetin after administration of EMIQ, the obtained plasma were analyzed using HPLC (UV 370 nm) with or without deconjugation treatment using glucuronidase/sulfatase[16]. Briefly, an aliquot of 250 μl of plasma was mixed with 50 μl of 20% (w/v) ascorbic acid and incubated with 125 μl of 75 mM potassium phosphate buffer (pH 6.8) with or without 500 U/sample β-glucronidase and 125 μl of 200 mM sodium acetate buffer (pH 5.0) with or without 10 U/sample sulfatase for 2 h at 37 °C after adding 2 μl of 1 mM nobiletin as an internal standard. To separate quercetin and isorhamnetin, mixture was applied on a Sep-Pak C18 1 cc Vac Cartridge and eluted with 2 ml 95% (v/v) methanol. After eluate was dried by evaporation, dried material was dissolved in 50 μl of 50% (v/v) methanol and applied to HPLC. HPLC was performed using a SHIMADZU LabSolutions system (SHIMADZU, Kyoto, Japan) with SPD-M20A diode array detector. HPLC separation was done with a gradient system using 0.02% aqueous phosphoric acid as mobile phase A and acetonitrile as mobile phase B with a Cadenza CL-C18 column (φ 4.6 mm × 250 mm, Kyoto, Japan) at a flow rate of 1.0 ml/min. The gradient program was 0–13 min, 20% B, 13–33 min, 50–80% B, 33–43 min, 100% B, 43–60 min, 20% B.

[4] = higher concentrations (1 μM and 10 μM)

Row | SMILES | phosphorylation of PI3K ([1]; 0.1 nM) | AMPK phosphorylation [2, 4] | concentration at 90 min ([3]; in vivo, 90 min after oral EMIQ 1000 mg/kg body weight) [nM] | phosphorylation of PI3K ([1]; 0.1–10 nM) | AMPK phosphorylation ([2]; 0.1 nM and 1 nM) | concentration at 90 min ([3]; plasma, oral, 90 min after oral EMIQ 10 mg/kg body weight) [nM] | concentration at 90 min ([3]; plasma, oral, 90 min after oral EMIQ 100 mg/kg body weight) [nM] | concentration at 90 min ([3]; plasma, oral, 90 min after oral EMIQ 1000 mg/kg body weight) [nM]
1 | COc1cc(-c2oc3cc(O)cc(O)c3c(=O)c2O)ccc1O [isorhamnetin, 3′-O-methyl quercetin] | increased PI3K phosphorylation | induced phosphorylation of AMPK | 131 ± 51.5 |  |  |  |  | 
2 | O=c1c(O)c(-c2ccc(O)c(O)c2)oc2cc(O)cc(O)c12 [quercetin, 3,3′,4′,5,7-pentahydroxy flavone] |  | induced phosphorylation of AMPK |  | significantly increased phosphorylation of PI3K | promoted AMPK phosphorylation | 4.95 ± 0.82 | 6.8 ± 2 | 138 ± 45.1

— publication PMC6389993, “Quercetin and its metabolite isorhamnetin promote glucose uptake through different signalling pathways in myotubes” (Scientific Reports, 2019)
